From US20220096515A1, “Methods and Formulations for Preventing Neurological or Psychiatric Disorders” (Huntington Medical Research Institutes, priority 2020, published 2022)

Assays:
[1] = tested on: CD1 derived endothelial cells, purified from the periventricular plexus; assay: Long-distance endothelial cell migration assay; assay type: cell-based, mouse; settings: vs untreated cells
Experimental: In preparation for long-distance cell migration assays, square culture inserts (ibidi GmbH) were placed at one end of a 35 mm dish. Cultures of CD1 derived endothelial cells, purified from the periventricular plexus, were plated in the insert and allowed to migrate for 24 hours in endothelial cell culture medium. Endothelial cells were labeled with cell trace marker (CellLight Plasma Membrane-RFP, BacMam 2.0, Invitrogen) to visualize endothelial cell morphologies during subsequent imaging. The migration of endothelial cells from one end of the dish to the other spanning a distance of 3.5 cm was imaged and quantified.
In one experiment, periventricular endothelial cells were isolated from E15 wildtype (CD1) forebrain and tested the effect of NAD^+ addition in vitro. Exogenous addition of 100 μM NAD^+ was able to initiate significant endothelial cell proliferation within 2 days of culture and a 35 mm culture dish was confluent within 4-6 days (FIGS. 2A-2D). This was an interesting observation, since untreated periventricular endothelial cells take approximately 12 days to reach confluency in 35mm dishes, in our well-established culture conditions. […] Vital elements of angiogenesis include effective endothelial cell proliferation, migration, sprouting, alignment, tube formation and branching. […]

Daxx = Daxx mRNA and protein levels in endothelial cells after prenatal treatment; assay type: in vivo, mouse
Experimental: Primary culture of endothelial cells and endothelial cell staining: Embryonic brains were dissected under a stereo-microscope, after the NAD^+ treatment paradigm and the telencephalon was removed. Pial membranes were peeled off. Telencephalon without pial membranes from the periventricular region was pooled. Purity of endothelial cell cultures was established with endothelial cell markers and determined to be one hundred percent. Isolation and culture of endothelial cells were performed according to published methodology. Periventricular endothelial cells were prepared from CD1 (wild type), saline-treated Gabrb3^fl/fl, saline-treated Gabrb3^ECKO, and NAD^+-treated Gabrb3^ECKO embryos. Endothelial cells were labeled with anti-biotinylated isolectinB4 (1:100, Sigma), anti-GABA (1:400, Sigma), anti-DAXX (1:100, Santa Cruz Biotechnology) and anti-P2X4 (1:100, Abclonal) followed by secondary detection with AlexaFluor conjugates (Invitrogen). DAPI (Invitrogen) was used to label nuclei. Images were taken on an FSX100 microscope (Olympus). 1 million cells were examined for each immunohistochemistry condition.
Quantitative real-time PCR: RT was performed by using iScript Reverse Transcription Supermix kit (Bio-Rad). […] The relative gene expression and subsequent fold changes among different samples were determined according to published methodology. […]

[2] = tested on: GABAergic neurons isolated at E18 from Gabrb3^ECKO; assay: In vitro neuronal migration assay after in vivo NAD+ treatment paradigm; assay type: cell-based, mouse; settings: neurons isolated at E18 after in vivo treatment E12-E17
Experimental: Isolation and primary culture of neuronal cells: Primary culture of embryonic GABAergic neurons from CD1 telencephalon or after the saline or NAD+ treatment paradigms were performed using established methods. Briefly, embryonic brains were extracted under a stereo microscope and placed into cold PBS. After removal of the pial membrane, the telencephalon was dissected from each embryonic brain. The telencephalon was minced into 1-2 mm slices in cold PBS. Minced telencephalon was treated with 0.1× trypsin/EDTA at 37° C. for 5 min. Trypsin treatment was stopped by adding FBS-DMEM media and DNase I consecutively. […]
Neuronal migration assay: In preparation for cell migration assays, one well square culture inserts (ibidi GmbH) were placed in the center of a poly-Ornithine/Laminin coated 35 mm dish, to make a small rectangular patch that is labeled outside the dish. […] Neuronal migration was assessed by measuring the distance between the final positions of cells from the border of the rectangular patch was outlined on the first day, using ImageJ software.
To test if the prenatal NAD^+ treatment was able to influence GABAergic neuronal migration, an in vitro neuronal migration assay was performed (FIG. 6M), after the in vivo NAD^+ treatment paradigm (E12-E17). […] Images of GFP^+ cells that had entered the dorsal telencephalon at E18 were collected and analyzed. […]

NC(=O)c1ccc[n+]([C@@H]2O[C@H](COP(=O)([O-])OP(=O)(O)OC[C@H]3O[C@@H](n4cnc5c(N)ncnc54)[C@H](O)[C@@H]3O)[C@@H](O)[C@H]2O)c1 [NAD^+]
long-distance migration of endothelial cells (cell number) [1]: robust long-distance migration | Daxx mRNA and DAXX protein levels (Daxx): normalize DAXX levels | migration of β-Tubulin^+ neurons (cell number and distance) [2]: migrated robustly
